One series has as its system pgRNA. In words: pgRNA, HBV-infected HepaRG. The format is cell-based. The note with it: Hepatitis B virus. On the procedure:
(§1) Following 4 day of maturation with 1 μM MB-1, HLC were incubated with HBV (purified from CHB individuals) at multiplicity of infection (MOI) 10-40 without PEG for 24 hr; virus inoculum was removed the following day. HBV infection in PHH was performed at MOI 40+4% PEG. Compound treatment in HLC and PHH was started at day 3 post infection. Compound (in powder) was dissolved in DMSO; the final concentration of DMSO added to cells is 1%. Fresh compound was replenished every 2 day until cells were harvested at day 10 (PHH), or day 14 (HLC). Compound effect on HBV and cellular toxicity was measured by multiplex assay (HBsAg, HBeAg, albumin), branched DNA (pgRNA), or digital PCR (cccDNA) and depicted as % of inhibition compared to DMSO control. Graphs were prepared using Spotfire software.
Levels of pgRNA in infected cells (96-well plate) were measured using QuantiGene Singleplex 2.0 assay (Affymetrix), a hybridization-based assay that utilizes the xMAP™ Luminex magnetic beads and branched DNA (bDNA) signal amplification technology. The assay is performed in 96-well plate according to manufacturer's recommendation. Briefly, cells were lysed and lysates were incubated with HBV probe sets panel at 50-55° C. for 30 min then stored at −80° C. Signal amplification is achieved via sequential hybridization of PreAmplifier, Amplifier, and Label Probe. After adding Streptavidin phycoerythrin (SAPE) substrate, the signal is read using a FlexMap 3D (Luminex) instrument.
Most of HBV in vitro studies, including evaluation of compound antiviral activity, are performed in hepatoma cell lines (HepaRG or HepG2-NTCP) infected with cell culture-derived HBV (e.g. HepG2.2.15-derived virus, GT D). As evaluation of cccDNA destabilizers was performed with patient-derived HBV GT D in PHH (see FIGS. 3F and 4A-4B), the inventors asked whether compound potency would be similar when tested against patient-derived HBV isolates from other GTs, or cell culture-derived virus (HepG2.2.15). To address the first question, PHH (in 384-well plate) were infected with four clinical HBV isolates (GT A-D, at MOI 40). At day 3 pi, cells were treated with compound 7, or DMSO, every other day until harvested and analysed at day 10 pi. Several observations are noteworthy. First, clinical HBV isolates across GTs varied in their replication capacity in PHH; as noted earlier in HLC (see FIG. 21) and also by others (Mabit et al., 1996; Sozzi et al, 2016). […] For each isolate, the amounts of secreted viral antigens are in close agreement with their cccDNA levels; thus, GT A isolate had the highest amount of cccDNA (˜11,000 copies/well), followed by GT C, B, and D (see FIG. 5B). […] Next, the inventors evaluated whether antiviral activity of compound 7 could be affected by the source of virus inoculum. […]

For series [1], the system named is albumin (secreted, cellular toxicity marker). In words: Albumin (in vitro cellular tox marker), multiplex assay, PHH. The format is cell-based. The note with it: human. On the procedure:
Fresh primary human hepatocytes (PXB-PHH) harvested from humanized mice (uPA/SCID mice)—herein called PHH—were obtained from PhoenixBio Co., Ltd (Japan). Cells were seeded on a collagen I-coated plate at the following cell density: 35,000 cells/well (384-well), 70,000 cells/well (96-well), or, 400,000 cells/well (24-well) in modified hepatocyte clonal growth medium (dHCGM). dHCGM is a DMEM medium containing 100 U/ml Penicillin, 100 μg/ml Streptomycin, 20 mM Hopes, 44 mM NaHCO3, 15 μg/ml L-proline, 0.25 μg/ml insulin, 50 nM Dexamethazone, 5 ng/ml EGF, 0.1 mM Asc-2P, 2% DMSO and 10% FBS (Ishida et al., 2015). Cells were cultured at 37° C. incubator in a humidified atmosphere with 5% CO2. Culture medium was replaced 24 h post-plating and every 2 days until harvest.
as §1, with “HBV infection in PHH was performed at MOI 40+4% PEG.” left out
A custom, Luminex-based multiplex assay that simultaneously measured HBeAg, albumin, and HBsAg was developed by Radix BioSolutions (Georgetown, Tex.). This is a sandwich immunoassay; each capture antibody was coupled with xMAP™ Luminex magnetic beads. The dynamic ranges of analyte detection are as follows: HBeAg (1-316 ng/ml), albumin (3.1-10,000 ng/ml), and HBsAg (0.1-100 ng/ml) with coefficient variant (CV) […]. Samples were read on FlexMAP 3D (Luminex) and analyzed by Genedata software.

Read-outs that look alike come from different tables or passages of the source.

Broadly, the IC50 is the concentration at which inhibition is half-maximal.

With `O=C(NC(CO)CO)c1c[nH]c2ncc(C3CC3)nc12` [compound 7], the IC50 in the series on pgRNA (HepG2.2.15-derived HBV GT D, MOI 40, read-out: pgRNA IC50 (μM) Median) came to 16.8 µM; with pgRNA (HepG2.2.15-derived HBV GT D, MOI 125, read-out: pgRNA IC50 (μM) Median), 26.6 µM; in the series on pgRNA (patient-derived HBV GT D, MOI 40, read-out: pgRNA IC50 (μM) Median) it was 1.93 µM; in the series on pgRNA (patient-derived HBV GT D, MOI 125, read-out: pgRNA IC50 (μM) Median), 4.62 µM. In addition, the IC50 at 7 days in series [1] (HepG2.2.15-derived HBV GT D, MOI 40, read-out: In vitro tox albumin IC50 (μM) Median) is 21.1 µM; in series [1] (HepG2.2.15-derived HBV GT D, MOI 125, read-out: In vitro tox albumin IC50 (μM) Median), 20.2 µM; in series [1] (primary human hepatocytes (PXB-PHH) infected with HBV, patient-derived HBV (GT D), read-out: In vitro tox albumin IC50 (μM) Median) it was 20.9 µM; in series [1] (primary human hepatocytes (PXB-PHH) infected with HBV, patient-derived HBV GT A, MOI 40, day 10 pi, read-out: In vitro tox albumin IC50 (μM) Median), 20.3 µM; in series [1] (primary human hepatocytes (PXB-PHH) infected with HBV, patient-derived HBV GT B, MOI 40, day 10 pi, read-out: In vitro tox albumin IC50 (μM) Median), 19.2 µM; in series [1] (primary human hepatocytes (PXB-PHH) infected with HBV, patient-derived HBV GT C, MOI 40, day 10 pi, read-out: In vitro tox albumin IC50 (μM) Median) it was 23.2 µM. Besides, the IC50 at 7 days turned out to be 23.7 µM in series [1] (primary human hepatocytes (PXB-PHH) infected with HBV, patient-derived HBV GT D, MOI 40 (Table 6), read-out: In vitro tox albumin IC50 (μM) Median); 23.7 µM in series [1] (primary human hepatocytes (PXB-PHH) infected with HBV, patient-derived HBV GT D, MOI 40, day 10 pi (Table 5), read-out: In vitro tox albumin IC50 (μM) Median); 20.5 µM in series [1] (primary human hepatocytes (PXB-PHH) infected with HBV, patient-derived HBV GT D, MOI 125, read-out: In vitro tox albumin IC50 (μM) Median).

(Values after patent US20230248723A1, “PYRROLO[2,3-B]PYRAZINE COMPOUNDS AS CCCDNA INHIBITORS FOR THE TREATMENT OF HEPATITIS B VIRUS (HBV) INFECTION” (Hoffmann-La Roche Inc., priority 2017, published 2023).)
